Laboratory results from patent US20010039287A1, “AROMATIC SULFONE HYDROXAMIC ACID METALLOPROTEASE INHIBITOR” (priority 1997, published 2001).
Structures can show the parent of a compound that is named as a salt. Where two headings read alike, the source gives them in different places.

How the values were obtained:
[1] = biological target: recombinant human MMP-13 (Homo sapiens, UniProt P45452); test: biochemical; settings: read-out: MMP-13 IC50
[2] = biological target: T1, recombinant human MMP-1 (Homo sapiens, UniProt P03956); test: biochemical
T1 construct: made in house; host or cells: transfected HT-1080 cells (provided by Dr. Harold Welgus, Washington University)
T1 sequence (P03956 100-469): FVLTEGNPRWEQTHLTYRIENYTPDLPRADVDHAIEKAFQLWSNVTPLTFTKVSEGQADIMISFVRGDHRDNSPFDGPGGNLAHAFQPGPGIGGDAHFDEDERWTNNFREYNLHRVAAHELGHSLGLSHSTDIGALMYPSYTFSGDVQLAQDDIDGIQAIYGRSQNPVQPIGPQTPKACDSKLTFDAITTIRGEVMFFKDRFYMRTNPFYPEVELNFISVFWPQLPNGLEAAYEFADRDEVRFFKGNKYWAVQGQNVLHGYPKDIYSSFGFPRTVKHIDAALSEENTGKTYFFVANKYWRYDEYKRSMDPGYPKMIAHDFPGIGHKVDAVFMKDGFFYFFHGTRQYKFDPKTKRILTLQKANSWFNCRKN

[3] = system: TNFα; test: Tumor necrosis factor assay: TNFα ELISA on PMA-stimulated U-937 cell supernatant; settings: Homo sapiens, U-937, read-out: TNFα Release IC50 in micromolar
[4] = biological target: T2, recombinant human MMP-2 (Homo sapiens, UniProt P08253); test: biochemical; settings: read-out: MMP-2 IC50
T2 sequence (P08253 110-660): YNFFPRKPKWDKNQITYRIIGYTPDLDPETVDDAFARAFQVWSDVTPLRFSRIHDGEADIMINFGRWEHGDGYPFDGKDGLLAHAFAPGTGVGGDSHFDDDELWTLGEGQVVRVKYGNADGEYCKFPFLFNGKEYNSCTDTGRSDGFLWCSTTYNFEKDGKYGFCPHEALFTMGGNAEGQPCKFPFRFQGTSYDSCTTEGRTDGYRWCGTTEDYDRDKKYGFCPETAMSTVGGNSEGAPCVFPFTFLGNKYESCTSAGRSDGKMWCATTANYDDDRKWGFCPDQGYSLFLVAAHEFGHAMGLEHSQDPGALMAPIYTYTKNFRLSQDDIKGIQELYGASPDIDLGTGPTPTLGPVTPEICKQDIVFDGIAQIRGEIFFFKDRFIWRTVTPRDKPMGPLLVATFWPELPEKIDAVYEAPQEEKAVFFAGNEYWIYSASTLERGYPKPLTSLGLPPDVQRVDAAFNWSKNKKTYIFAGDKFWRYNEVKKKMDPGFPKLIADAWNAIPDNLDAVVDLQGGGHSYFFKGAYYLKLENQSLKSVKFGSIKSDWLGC

[5] = biological target: recombinant human MMP-9 (Homo sapiens, UniProt P14780); test: biochemical; settings: read-out: MMP-9 IC50
[6] = system: neovascularization of the corneal stroma; test: In vivo angiogenesis assay (corneal micropocket, bFGF pellet); settings: mouse corneal micropocket, 50 mpk bid po, day five, area of neovascularization vs control
Method: The study of angiogenesis depends on a reliable and reproducible model for the stimulation and inhibition of a neovascular response. The corneal micropocket assay provides such a model of angiogenesis in the cornea of a mouse. See, A Model of Angiogenesis in the Mouse Cornea; Kenyon, B M, et al., Investigative ophthalmology & Visual Science, July 1996, Vol. 37, No. 8.
In this assay, uniformLy sized Hydron™ pellets containing bFGF and sucralfate were prepared and surgically implanted into the stroma mouse cornea adjacent to the temporal limbus. […]
Mice were dosed on a daily basis for the duration of the assay. […] At day five, the degree of angiogenic inhibition was scored by viewing the neovascular progression with a slit lamp microscope.
The mice were anesthetized and the studied eye was once again proptosed. The maximum vessel length of neovascularization, extending from the limbal vascular plexus toward the pellet was measured. In addition, the contiguous circumferential zone of neovascularization was measured as clock hours, where 30 degrees of arc equals one clock hour. The area of angiogenesis was calculated as follows. […]
Five to six mice were utilized for each compound in each study. The studied mice were thereafter compared to control mice and the difference in the area of neovascularization was recorded as an averaged value. […]

[7] = system: PC-3 human pancreatic cancer cells (ATCC CRL 1435); test: In vivo PC-3 tumor reduction; set-up: species or system mouse; settings: PC-3 tumor in Balb/c nu/nu mice, day 25-30
Method: PC-3 human pancreatic cancer eclls (ATCC CRL 1435) were grown to 90% confluence in F12/MEM (Gibco) containing 7% FBS (Gibco). Cells were mechanically harvested using a rubber scraper, and then washed twice with cold medium. The resulting cells were resuspended in cold medium with 30% matrigel (Collaborative Research) and the cell-containing medium was maintained on ice until used.
Balb/c nu/nu mice at 7-9 weeks of age were anesthetized with avertin [2,2, 2-tribromethanol/t-amyl alcohol (1 g/l mL) diluted 1:60 into phosphate-buffered sline] and 3-5×10^6 of the above cells in 0.2 mL of medium were injected into the left flank of each mouse. Cells were injected in the morning, whereas dosing with an inhibitor began at 6 PM. The animals were gavaged BID from day zero (cell injection day) to day 25-30, at which time the animals were euthanized and tumors weighed.
Compounds were dosed at 10 mg/mL in 0.5% methylcellulose/0.1% polysorbate 80 to provide a 50 mg/kg (mpk) dose twice each day, or diluted to provide a 10 mg/kg (mpk) dose twice each day. Tumor measurements began on day 7 and continued every third or fourth day until completion of the study. Groups of ten mice were used in each study and nine to ten survived. Each group of mice so studied constitutes an “n” value of one, so that “n” values greater than one represent multiple studies whose averaged result is provided in the table. […]

[8] = system: solid tumor cancers (colorectal, pancreatic, ovarian, prostate); settings: cited from earlier work
[9] = set-up: AUC (0-∞): unit not given beside the values; settings: for t½ Hour: Rat Intravenous 20 mpk
[10] = Inhibition Table A, read-out: MMP-1 IC50
[11] = Inhibition Table B, read-out: MMP-1 IC50

recombinant human MMP-9, sequence (P14780 107-707 limits assumed): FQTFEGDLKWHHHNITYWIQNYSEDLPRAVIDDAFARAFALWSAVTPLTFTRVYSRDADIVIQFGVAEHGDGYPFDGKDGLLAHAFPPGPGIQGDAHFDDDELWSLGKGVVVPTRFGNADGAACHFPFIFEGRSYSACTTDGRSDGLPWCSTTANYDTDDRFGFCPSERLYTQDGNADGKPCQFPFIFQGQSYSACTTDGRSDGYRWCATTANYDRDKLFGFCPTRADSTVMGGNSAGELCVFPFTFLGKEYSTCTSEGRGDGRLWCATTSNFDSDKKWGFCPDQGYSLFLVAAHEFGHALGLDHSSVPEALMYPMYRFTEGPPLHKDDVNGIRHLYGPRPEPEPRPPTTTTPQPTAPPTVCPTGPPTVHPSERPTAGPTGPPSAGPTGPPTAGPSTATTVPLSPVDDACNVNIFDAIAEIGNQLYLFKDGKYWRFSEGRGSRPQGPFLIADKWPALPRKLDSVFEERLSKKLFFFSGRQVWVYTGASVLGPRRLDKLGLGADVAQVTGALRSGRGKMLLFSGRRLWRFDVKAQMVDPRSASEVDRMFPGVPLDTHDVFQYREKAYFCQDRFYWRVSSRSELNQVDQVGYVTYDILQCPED

Row | Compound | IC50 ([1]; Inhibition Table A) | IC50 [2, 10] | IC50 [3] | IC50 ([4]; Inhibition Table A) | IC50 ([1]; Inhibition Table B) | IC50 [2, 11] | IC50 ([4]; Inhibition Table B) | IC50 ([5]; Inhibition Table B) | t½ Hour [9] | other results
1 | C#CCN1CCC(C(=O)NO)(S(=O)(=O)c2ccc(Oc3ccc4c(c3)OCO4)cc2)CC1 [Example 10] | 0.4 nM | 1600 nM | > 50 µM |  |  |  |  |  |  | 
2 | O=C(NO)C1(S(=O)(=O)c2ccc(Oc3ccccc3)cc2)CCNCC1 [Example 4] | 0.35 nM | 1090 nM | > 50 µM | 0.23 nM |  |  |  |  |  | IC50 ([5]; Inhibition Table A): 5 nM
3 | CNC(=O)[C@@H](NC(=O)[C@H](CC(C)C)[C@H](O)C(=O)NO)C(C)(C)C [marimastat] |  |  |  |  |  |  |  |  |  | Inhibition of Angiogenesis [6]: 48 (n = 6) percent; Average Percentage Reduction In Tumor Weight ([7]; 10 mpk BID gavage): <5 Percentage; Average Percentage Reduction In Tumor Weight ([7]; 50 mpk BID gavage): 39 (n = 2) Percentage; most common drug-related toxicity ([8]; clinical trials, patients): musculoskeletal pain and stiffness; cancer-specific antigens used as surrogate markers for biological activity ([8]; patients with advanced, rapidly progressive, treatment-refractory solid tumor cancers): dose-related reduction in the rise of cancer-specific antigens
4 | COCCN1CCC(C(=O)NO)(S(=O)(=O)c2ccc(Sc3ccccc3)cc2)CC1 [Example 35, N—hydroxy-1-(2-methoxyethyl)-4-[[4-(phenylthio)phenyl]-sulfonyl]-4-piperidinecarboxamide, Monohydrochloride] |  |  | > 80 µM |  | 0.5 nM | > 10000 nM | 0.3 nM | 3 nM |  | 
5 | C#CCN1CCC(C(=O)NO)(S(=O)(=O)c2ccc(Sc3ccccc3)cc2)CC1 [Example 9] |  | 9000 nM | > 50 µM | 0.2 nM |  |  |  |  |  | 
6 | O=C(NO)C1(S(=O)(=O)c2ccc(Oc3ccc(OC(F)(F)F)cc3)cc2)CCOCC1 [Example 69] |  |  | > 80 µM |  |  |  |  |  |  | AUC (0-∞) ([9]; rat, in vivo): 63.78; Blood Level @ 3 min ([9]; rat, in vivo): 44000 ng/mL; Blood Level @ 3 min ([9]; rat, in vivo, iv, 20 mg/kg): 44000 ng/mL
7 | O=C(NO)C1(S(=O)(=O)c2ccc(Sc3ccccc3)cc2)CCOCC1 [Example 95, Tetrahydro-N-hydroxy-4-[[4-(phenylthio)phenyl]sulfonyl]-2H-pyran-4-carboxamide] |  |  | > 50 µM |  | 0.5 nM | > 10000 nM | 1 nM | 3.6 nM | 1.06 h | 
8 | C#CCN1CCC(C(=O)NO)(S(=O)(=O)c2ccc(SC3CCCCC3)cc2)CC1 [Example 13] | 0.6 nM |  | > 50 µM | 0.4 nM |  |  |  |  |  | 
9 | O=C(NO)C1(S(=O)(=O)c2ccc(Oc3ccc(C(F)(F)F)cc3)cc2)CCOCC1 [Example 379] |  |  | 80 µM |  |  |  |  |  | 1.74 h | 
10 | O=C(NO)C1(S(=O)(=O)c2ccc(Sc3ccc(F)cc3)cc2)CCN(C2CC2)CC1 [Example 27] | 0.45 nM | > 10000 nM | > 80 µM | 0.4 nM |  |  |  |  |  | IC50 ([5]; Inhibition Table A): 4 nM
11 | O=C(O)CNc1ccc(Oc2ccc(S(=O)(=O)C3(C(=O)NO)CCSCC3)cc2)cc1 [Example 117, tetrahydro-N-hydroxy-4-[[4-[4-hydroxyphenyl Glycine)]phenyl] Sulfonyl 2H-thiopyran-4-carboxamide] |  |  |  |  | 4.8 nM | 3700 nM | 0.6 nM | 45.4 nM | 0.78 h | 
12 | O=C(NO)C1(S(=O)(=O)c2ccc(Sc3ccc(F)cc3)cc2)CCOCC1 [Example 103, 4-[[4-[(4-fluorophenyl)-thio]phenyl]sulfonyl]tetrahydro-N-hydroxy-2H-pyran-4-carboxamide] |  |  |  |  | 0.7 nM | > 10000 nM | 0.8 nM | 10 nM | 1.10 h | 
13 | Cl.O=C(NO)C1(S(=O)(=O)c2ccc(Sc3ccccc3)cc2)CCN(C2CC2)CC1 [Example 32, 1-cyclopropyl-N-hydroxy-4-[[4-(phenylthio)phenyl]sulfonyl]-4-piperidine Carboxamide, Monohydrochloride] |  |  |  |  | 0.2 nM |  | 0.1 nM | 2.5 nM | 1.03 h | IC50 [2]: > 10000 nM
14 | C#CCN1CCC(C(=O)NO)(S(=O)(=O)c2ccc(Oc3ccccc3)cc2)CC1 [Example 6] | 0.25 nM | 327 nM | > 50 µM | 0.15 nM |  |  |  |  |  | 
15 | O=C(NO)C1(S(=O)(=O)c2ccc(Oc3ccccc3)cc2)CCSCC1 [Example 109] |  |  |  |  | 0.3 nM | 500 nM | 0.1 nM | 0.7 nM | 1.12 h | 
